BindingDB's records for doi:10.1021/jm00111a037 (University of Tokushima, 1991)

Test: Inhibition of arachidonate 5-lipoxygenase purified from porcine leukocytes.

SMILES | IC50
CCCCCCCCCCCCCCc1c(-c2ccc(O)c(O)c2)oc2c(OC)c(OC)cc(OC)c2c1=O | 0.115 µM
CCCCCCCCCCCCCCc1c(-c2ccc(O)c(O)c2)oc2cc(OC)c(OC)c(=O)c-2c1O | 0.87 µM
CCCCCCOc1c(OC)c(OC)cc2oc(-c3ccc(O)c(O)c3)c(OC)c(=O)c12 | 0.28 µM
CCCCCCCCCCCCCCCCc1c(-c2ccc(O)c(O)c2)oc2c(OC)c(OC)cc(OC)c2c1=O | 0.5 µM
CCCCCCOc1c(OC)c(OC)cc2oc(-c3ccc(O)c(O)c3)c(O)c(=O)c12 | 1.35 µM
CCCCCCOc1cc(OC)c(OC)c2oc(-c3ccc(O)c(O)c3)c(O)c(=O)c12 | 0.77 µM
CCCCCCCCCCCCCCCCc1c(-c2ccc(O)c(O)c2)oc2cc(OC)c(OC)c(OC)c2c1=O | 0.95 µM
COc1cc(O)c2c(=O)c(C)c(-c3ccc(O)c(O)c3)oc2c1OC | 0.3 µM
CCCCCCCCCCc1c(-c2ccc(O)c(O)c2)oc2c(OC)c(OC)cc(O)c2c1=O | 0.135 µM
CCCCCCOc1c(-c2ccc(O)c(O)c2)oc2c(OC)c(OC)cc(OC)c2c1=O | 0.088 µM
CCCCCCOc1c(-c2ccc(O)c(O)c2)oc2cc(OC)c(OC)c(OC)c2c1=O | 0.126 µM
CCCCCCc1c(-c2ccc(O)c(O)c2)oc2cc(OC)c(OC)c(=O)c-2c1O | 0.11 µM
CCCCCCCCCCCCCCCCc1c(-c2ccc(O)c(O)c2)oc2cc(OC)c(OC)c(=O)c-2c1O | 1.25 µM
CCCCCCCCCCc1c(-c2ccc(O)c(O)c2)oc2c(OC)c(OC)cc(OC)c2c1=O | 0.086 µM
CCCCc1c(-c2ccc(O)c(O)c2)oc2cc(OC)c(OC)c(=O)c-2c1O | 0.265 µM
CCCCCCCCc1c(-c2ccc(O)c(O)c2)oc2c(OC)c(OC)cc(OC)c2c1=O | 0.062 µM
CCCCCCCCCCCCCCCCc1c(-c2ccc(O)c(O)c2)oc2c(OC)c(OC)cc(O)c2c1=O | 1.5 µM
COc1cc2oc(-c3ccc(O)c(O)c3)c(C)c(=O)c2c(O)c1OC | 0.48 µM
CCCCc1c(-c2ccc(O)c(O)c2)oc2c(OC)c(OC)cc(OC)c2c1=O | 0.1 µM
CCCCCCCCCCCCc1c(-c2ccc(O)c(O)c2)oc2c(OC)c(OC)cc(OC)c2c1=O | 0.105 µM
CCCCCCc1c(-c2ccc(O)c(O)c2)oc2c(OC)c(OC)cc(OC)c2c1=O | 0.058 µM

Test: The compound was tested for the inhibition of Arachidonate 5-lipoxygenase purified from porcine leukocytes.

SMILES | IC50
CCCCCCCCCCCCc1c(-c2ccc(O)c(O)c2)oc2cc(OC)c(OC)c(OC)c2c1=O | 0.175 µM
CCCCCCCCCCCCCCc1c(-c2ccc(O)c(O)c2)oc2cc(OC)c(OC)c(OC)c2c1=O | 0.24 µM
CCCCCCCCCCCCc1c(-c2ccc(O)c(O)c2)oc2c(OC)c(OC)cc(O)c2c1=O | 0.34 µM
CCCCCCCCCCc1c(-c2ccc(O)c(O)c2)oc2cc(OC)c(OC)c(OC)c2c1=O | 0.19 µM
CCCCCCCCCCCCc1c(-c2ccc(O)c(O)c2)oc2cc(OC)c(OC)c(=O)c-2c1O | 0.21 µM
CCCCCCCCc1c(-c2ccc(O)c(O)c2)oc2cc(OC)c(OC)c(OC)c2c1=O | 0.25 µM
CCCCCCCCCCCCCCc1c(-c2ccc(O)c(O)c2)oc2c(OC)c(OC)cc(O)c2c1=O | 0.5 µM
